The source of these data is article PMC10178506, “Chemical and Biological Evaluation of Novel 1H-Chromeno[3,2-c]pyridine Derivatives as MAO Inhibitors Endowed with Potential Anticancer Activity” (International Journal of Molecular Sciences, 2023).

For one test, the target named is T1, human recombinant MAO B (Homo sapiens, UniProt P27338).
T1 construct: purchased Sigma Aldrich (Milan, Italy); host or cells: baculovirus-infected insect cells
T1 sequence (P27338 1-520): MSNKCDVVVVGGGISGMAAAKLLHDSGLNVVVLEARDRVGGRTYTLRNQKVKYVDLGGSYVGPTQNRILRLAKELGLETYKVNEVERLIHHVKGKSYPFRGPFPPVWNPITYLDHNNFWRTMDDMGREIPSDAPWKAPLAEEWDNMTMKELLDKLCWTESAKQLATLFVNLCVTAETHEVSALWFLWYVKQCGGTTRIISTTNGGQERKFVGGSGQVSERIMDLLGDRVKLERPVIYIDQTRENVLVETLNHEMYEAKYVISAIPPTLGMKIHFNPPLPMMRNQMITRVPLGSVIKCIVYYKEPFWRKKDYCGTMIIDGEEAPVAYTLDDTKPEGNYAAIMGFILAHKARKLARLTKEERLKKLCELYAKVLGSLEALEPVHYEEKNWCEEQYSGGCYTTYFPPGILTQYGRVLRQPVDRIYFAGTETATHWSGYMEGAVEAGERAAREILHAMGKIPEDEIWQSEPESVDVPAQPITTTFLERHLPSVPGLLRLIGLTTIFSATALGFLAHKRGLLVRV
Description: biochemical. It is filed as biochemical. To be noted: for inhibition at 10 µM: read-out: hMAO-B % inhibition at 10 μM.

The next test has as its target T2, BChE from human serum (Homo sapiens, UniProt P06276).
T2 construct: ChEs (human recombinant AChE and BChE from human serum), purchased from Sigma Aldrich (Milan, Italy); purchased Sigma Aldrich (Milan, Italy); host or cells: human serum (natural source)
Description: biochemical. To be noted: for hBChE % inhibition at 10 μM / inhibition at 10 µM: 10 μM concentration, mean ± S.D. (n = 3), n.i. = no inhibition at 10 μM; for inhibition at 10 µM: read-out: hBChE % inhibition at 10 μM. The protocol: (§1) Human isoforms of MAOs (from baculovirus-infected insect cells) and ChEs (human recombinant AChE and BChE from human serum), purchased from Sigma Aldrich (Milan, Italy), were used for inhibition assays. Experiments were performed in 96-well plates (Greiner Bio-One, Kremsmünster, Austria) on the Infinite M1000 Pro plate reader (Tecan, Cernusco s.N., Italy), using already published protocols.
(§2) The inhibition of human recombinant AChE or BChE from human serum was determined by applying Ellman’s spectrophotometric method as described in previously reported protocols. The AChE activity was determined in an assay solution containing AChE (0.09 U/mL), 5,5′-dithiobis(2-nitrobenzoic acid) (i.e., the Ellman’s reagent, 0.33 mM), the test compound (10 μM concentration, or seven scalar concentrations for compounds achieving > 60% enzyme inhibition at 10 μM), in 0.1 M PBS pH 8.0. […] The BChE inhibitory activity was similarly determined by using BChE (0.09 U/mL) and butyrylthiocholine iodide (5 μM) as the substrate.
(§3) The IC50 values, Michaelis–Menten curve fitting and inhibition constant (Ki) were calculated by nonlinear regression, using Prism software.

For the next test, the target named is T3, human recombinant AChE (Homo sapiens, UniProt P22303).
T3 construct: purchased Sigma Aldrich (Milan, Italy)
Description: biochemical. To be noted: for inhibition at 10 µM: read-out: hAChE % inhibition at 10 μM. The protocol:
as §1, §2, §3

The next test concerns the target T4, human recombinant MAO A (Homo sapiens, UniProt P21397).
T4 construct: purchased Sigma Aldrich (Milan, Italy); host or cells: baculovirus-infected insect cells
T4 sequence (P21397 1-527): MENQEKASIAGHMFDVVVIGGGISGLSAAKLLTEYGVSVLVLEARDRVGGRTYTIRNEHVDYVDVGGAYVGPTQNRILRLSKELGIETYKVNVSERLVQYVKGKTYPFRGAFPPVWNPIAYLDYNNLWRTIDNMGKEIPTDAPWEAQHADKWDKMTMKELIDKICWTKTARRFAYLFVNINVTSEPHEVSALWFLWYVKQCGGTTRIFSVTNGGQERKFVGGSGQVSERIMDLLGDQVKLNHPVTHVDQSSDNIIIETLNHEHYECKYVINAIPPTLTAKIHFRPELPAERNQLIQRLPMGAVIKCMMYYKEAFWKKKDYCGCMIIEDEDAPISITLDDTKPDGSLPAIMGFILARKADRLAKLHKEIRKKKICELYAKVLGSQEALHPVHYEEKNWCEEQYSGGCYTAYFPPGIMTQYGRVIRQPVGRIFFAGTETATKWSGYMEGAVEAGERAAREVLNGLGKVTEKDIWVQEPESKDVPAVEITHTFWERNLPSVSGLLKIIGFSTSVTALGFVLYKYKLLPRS
Description: biochemical. In kind it is biochemical. Conditions: for inhibition at 10 µM: read-out: hMAO-A % inhibition at 10 μM. The protocol: as §1
After the addition of human recombinant MAO A (250 U/mg) or MAO B (59 U/mg) and a further 30 min of incubation, NaOH was added, and the fluorescence read at 310/400 nm excitation/emission wavelength. […] IC50 is expressed as mean ± SD of three independent measurements, each one performed in duplicate. For the kinetic study on the inhibition mechanism of MAO B, three diverse scalar concentrations of the inhibitor and seven concentrations of kynuramine were used.
as §3

The test system of test [1] is HCT116, colon cancer cell line. Briefly: Antiproliferative activity, sulforhodamine-B (SRB) assay, HCT116. In kind it is cell-based, human. Conditions: Homo sapiens, HCT-116; 72 h exposure; SRB assay; mean ± S.D.; >50 = less than 50% growth inhibition at 50 μM; read-out: Antiproliferative activity IC50, HCT116. The protocol: (§4) The SK-OV-3 ovarian cancer cell line, MCF-7 breast cancer line and HCT-116 colon cancer cell line were obtained from the National Cancer Institute, Biological Testing Branch (Frederick, MD, USA), and maintained in the logarithmic phase at 37 °C in a 5% CO2 humidified air in RPMI 1640 medium supplemented with 10% fetal calf serum, 2 mM glutamine, penicillin (100 U/mL) and streptomycin (0.1 mg/mL).
(§5) The growth inhibitory effects of compounds under investigation were compared to those of cisplatin (CDDP) and doxorubicin (DXR), used as positive controls, and evaluated by using the sulforhodamine-B (SRB) assay. Briefly, cells were seeded into 96-well microtiter plates in 100 µL of the appropriate culture medium at plating densities at 2500, 5000 and 8000 cells/well for MCF-7, HCT-116 and SKOV-3, respectively, depending upon the doubling time of individual cell lines. After seeding, microtiter plates were incubated at 37 °C for 24 h before adding the test compounds. After 24 h, several samples of each cell line were fixed in situ with cold trichloroacetic acid (TCA) to represent a measurement of the cell population at the time of compound addition. The test compounds were freshly dissolved in dimethyl sulfoxide (DMSO, 10^−2 M) and gradually diluted to different concentrations (0.79–50 µM) with a complete medium, so that the maximum DMSO/well ratio was 0.5% v/v. After the addition of different compound concentrations to triplicate wells, the plates were further incubated at 37 °C for 72 h. Cells were fixed in situ by the gentle addition of 50 µL of cold 50% w/v TCA (final concentration 10%) and incubated for 1 h at 4 °C. The supernatant was discarded, and the plates were washed with tap water and air-dried. SRB solution (100 µL) at 0.4% (w/v) in 1% acetic acid was added to each well, and the plates were incubated for 30 min at room temperature. After staining, the unbound dye was removed by washing with 1% acetic acid and the plates were air-dried. The bound stain was then solubilized with 10mM Trizma base and the absorbance was read on an automatic plate reader at 570 nm.

The test system of test [2] is SK-OV-3, human ovarian carcinoma with intrinsic resistance to cisplatin. Description: Antiproliferative activity, sulforhodamine-B (SRB) assay, SK-OV-3. In kind it is cell-based. To be noted: Homo sapiens, SK-OV-3, 72 h, read-out: Antiproliferative activity IC50, SK-OV-3. On the procedure:
as §4, §5

Test [3] relates to MCF-7, human breast carcinoma cell. Description: Antiproliferative activity, sulforhodamine-B (SRB) assay, MCF-7. It is filed as cell-based. Conditions: Homo sapiens, read-out: Antiproliferative activity IC50, MCF-7. On the procedure:
as §4, §5

Like-named read-outs stand apart in the source and are kept apart here. A value given as a limit tells only on which side of the number the result lay.

T2 sequence (P06276 29-602): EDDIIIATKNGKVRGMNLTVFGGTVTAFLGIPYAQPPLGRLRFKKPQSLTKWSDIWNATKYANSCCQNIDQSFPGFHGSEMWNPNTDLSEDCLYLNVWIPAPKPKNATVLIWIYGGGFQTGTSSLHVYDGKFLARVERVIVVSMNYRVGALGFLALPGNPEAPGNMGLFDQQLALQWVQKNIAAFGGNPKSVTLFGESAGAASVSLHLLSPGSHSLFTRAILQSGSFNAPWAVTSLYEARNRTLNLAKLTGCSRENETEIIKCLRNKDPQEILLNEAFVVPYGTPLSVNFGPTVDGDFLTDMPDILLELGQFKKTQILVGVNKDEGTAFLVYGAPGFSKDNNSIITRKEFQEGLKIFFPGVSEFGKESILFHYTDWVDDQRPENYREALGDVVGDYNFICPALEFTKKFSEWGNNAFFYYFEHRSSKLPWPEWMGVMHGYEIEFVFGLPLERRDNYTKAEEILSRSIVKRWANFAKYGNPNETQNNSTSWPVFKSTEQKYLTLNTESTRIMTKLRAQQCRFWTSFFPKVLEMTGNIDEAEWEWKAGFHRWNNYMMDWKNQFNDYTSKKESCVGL
T3 sequence (P22303 32-614): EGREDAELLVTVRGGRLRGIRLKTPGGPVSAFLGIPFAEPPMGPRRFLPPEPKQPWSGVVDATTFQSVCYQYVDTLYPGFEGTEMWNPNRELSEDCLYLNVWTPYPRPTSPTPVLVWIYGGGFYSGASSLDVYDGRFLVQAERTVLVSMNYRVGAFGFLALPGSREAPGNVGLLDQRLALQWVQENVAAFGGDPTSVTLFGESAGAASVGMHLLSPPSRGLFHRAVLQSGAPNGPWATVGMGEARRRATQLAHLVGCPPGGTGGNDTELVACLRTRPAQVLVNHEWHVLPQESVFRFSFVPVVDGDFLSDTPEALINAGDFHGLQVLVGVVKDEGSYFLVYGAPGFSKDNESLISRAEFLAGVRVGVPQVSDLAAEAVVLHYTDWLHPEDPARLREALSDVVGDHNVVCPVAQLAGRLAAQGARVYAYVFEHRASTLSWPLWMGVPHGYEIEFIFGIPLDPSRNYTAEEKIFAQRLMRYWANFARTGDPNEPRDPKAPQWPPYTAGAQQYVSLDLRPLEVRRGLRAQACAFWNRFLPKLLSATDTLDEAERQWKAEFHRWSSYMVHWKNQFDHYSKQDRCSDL

Regarding `CCOc1cccc2c1O[C@]1(O)CCN(C)C[C@@H]1[C@@H]2O` (relative stereo) [7e, (4aR*,10S*,10aR*)-6-Ethoxy-2-methyl-1,2,3,4,10,10a-hexahydro-4aH-chromeno[3,2-c]pyridine-4a,10-diol], the figures for the inhibition at 10 µM on human recombinant MAO B and at human recombinant MAO A were 25% and 19%, respectively. In addition, the “hBChE % inhibition at 10 μM” value at BChE from human serum is listed as “n.i”. On human recombinant AChE, the “hAChE % inhibition at 10 μM” value is “n.i”.
For the compound `CN1CC[C@@]2(O)Oc3ccc(Br)cc3[C@@H](O)[C@H]2C1` (relative stereo) [7c, (4aR*,10S*,10aR*)-8-Bromo-2-methyl-1,2,3,4,10,10a-hexahydro-4aH-chromeno[3,2-c]pyridine-4a,10-diol], the inhibition at 10 µM on human recombinant MAO B came out at 35%; on BChE from human serum, 12%; on human recombinant MAO A, 21%. Besides, the “hAChE % inhibition at 10 μM” value at human recombinant AChE is reported as “n.i”.
In the case of `CCOc1cccc2c(=O)c3c(oc12)C=CN(C(C)C)C3C#Cc1ccccc1` (centres unmarked) [3d, 6-Ethoxy-2-isopropyl-1-(phenylethynyl)-1,2-dihydro-10H-chromeno[3,2-c]pyridin-10-one], the inhibition at 10 µM at human recombinant MAO B was determined as 22%; on BChE from human serum, 10%; at human recombinant MAO A, 36%. In addition, the “hAChE % inhibition at 10 μM” value at human recombinant AChE is “n.i”.
Take `COc1cccc2c1C(=O)c1c(O)c3c(c(O)c1C2=O)C[C@@](O)(C(=O)CO)C[C@@H]3O[C@H]1C[C@H](N)[C@H](O)[C@H](C)O1` [Doxorubicin, doxorubicin, reference compound]: the IC50 worked out at 380 ± 30 nM in test [1]; 2200 ± 20 nM in test [2] (72 h exposure, SRB assay, mean ± S.D., >50 = less than 50% growth inhibition at 50 μM); 180 ± 20 nM in test [3] (MCF7, 72 h exposure, SRB assay, mean ± S.D., >50 = less than 50% growth inhibition at 50 μM).
For the compound `CN1CC[C@@]2(O)Oc3ccc(Br)cc3[C@@H](O)[C@@H]2C1` (relative stereo) [8c, (4aR*,10S*,10aS*)-8-Bromo-2-methyl-1,2,3,4,10,10a-hexahydro-4aH-chromeno[3,2-c]pyridine-4a,10-diol], the inhibition at 10 µM stood at 15% on human recombinant MAO B, 45% on human recombinant AChE and 14% on human recombinant MAO A. The “hBChE % inhibition at 10 μM” value on BChE from human serum is recorded as “n.i”.
As for `CN1C=Cc2oc3ccccc3c(=O)c2C1C#Cc1ccccc1` (centres unmarked) [3a, 2-Methyl-1-(phenylethinyl)-1H-chromeno[3,2-c]pyridine-10(2H)-one], the “MAO B/A selectivity” value at human recombinant MAO B (from MAO B and MAO A inhibition data) is “more than twentyfold”. The half-maximal inhibitory concentration (IC50) at human recombinant MAO B (hMAO-B IC50, mean ± S.D., determined for compounds with more than 60% inhibition at 10 μM) came out at 510 ± 21 nM; at BChE from human serum (mean ± S.D., determined for compounds with more than 60% inhibition at 10 μM, read-out: hBChE IC50) it was 8420 ± 250 nM; on human recombinant AChE (mean ± S.D., determined for compounds with more than 60% inhibition at 10 μM, read-out: hAChE IC50), 6790 ± 420 nM. For the same compound, the inhibition at 10 µM at human recombinant MAO A came to 35%.
Regarding `CN1CCc2oc3ccccc3c(=O)c2C1` [1a, 1,2,3,4-tetrahydro-2-methylchromeno[3,2-c]pyridin-10-one], the inhibition at 10 µM on human recombinant MAO B was 29%; on human recombinant AChE, 34%; on human recombinant MAO A, 15%. Moreover, on BChE from human serum, the “hBChE % inhibition at 10 μM” value is on record as “n.i”.
As to `CN1CC[C@@]2(O)Oc3ccccc3[C@@H](O)[C@@H]2C1` (relative stereo) [8a, (4aR*,10S*,10aS*)-2-Methyl-1,2,3,4,10,10a-hexahydro-4aH-chromeno[3,2-c]pyridine-4a,10-diol], the inhibition at 10 µM stood at 42% at human recombinant MAO B, 22% on human recombinant AChE and 8% at human recombinant MAO A. Besides, the “hBChE % inhibition at 10 μM” value at BChE from human serum is listed as “n.i”.
For the compound `O[C@@H]1c2ccccc2O[C@]2(O)CCN(Cc3ccccc3)C[C@@H]12` (relative stereo) [8e, (4aR*,10S*,10aS*)-2-Benzyl-1,2,3,4,10,10a-hexahydro-4aH-chromeno[3,2-c]pyridine-4a,10-diol], the inhibition at 10 µM turned out to be 41% on human recombinant MAO B, 19% at BChE from human serum, 25% on human recombinant AChE and 12% on human recombinant MAO A.
Consider `CN1CC[C@@]2(O)Oc3ccccc3[C@@H](O)[C@H]2C1` (relative stereo) [7a, (4aR*,10S*,10aR*)-2-Methyl-1,2,3,4,10,10a-hexahydro-4aH-chromeno[3,2-c]pyridine-4a,10-diol], for which the inhibition at 10 µM turned out to be 22% on human recombinant MAO B, 24% on human recombinant AChE and 14% at human recombinant MAO A. At BChE from human serum, the “hBChE % inhibition at 10 μM” value was “n.i”.
As for `CN1CC=C2Oc3ccc(Cl)cc3C=C2C1` [2a, 8-Chloro-2,3-dihydro-2-methyl-1H-chromeno[3,2-c]pyridine], the IC50 is more than 50000 nM in test [2]; 1180 ± 70 nM at human recombinant MAO A; 48100 ± 4210 nM in test [3] (MCF7, 72 h). For the same compound, the results for the inhibition at 10 µM on human recombinant MAO B and at human recombinant AChE were 45% and 25%, respectively. Moreover, on BChE from human serum, the “hBChE % inhibition at 10 μM” value is on record as “n.i”. The “Selectivity for MAO A over MAO B” value on human recombinant MAO A (from MAO A and MAO B inhibition data) was “about tenfold”.
